# Results: patent US20160115200A1, “New Use for JNK Inhibitor Molecules for Treatment of Various Diseases” (XIGEN INFLAMMATION LTD., priority 2013, published 2016)
# Square brackets hold non-standard residues; d marks the D form. Peptide text beside a SMILES is read from it.
# Key:
# [1] = tested on: endotoxins-induced uveitis albino rat model; experiment: Endotoxins-induced uveitis (EIU), single intravenous injection, clinical scoring 24 h after LPS; format: in vivo; set-up: key to EIU clinical score, median: clinical score per eye, 0 to 4 scale; conditions: for EIU clinical score, mean±SEM / EIU clinical score, median: 24 hours after LPS
# Experimental: The aim of this study was to determine the effects of single intravenous injections of SEQ ID NO: 172 (0.015, 0.18, and 1.80 mg/kg) on the inflammatory response in an endotoxins-induced uveitis albino rat model and to compare these affects to those obtained with prior art JNK inhibitor of SEQ ID NO: 197 (2 mg/kg). As a further control served phosphate sodic dexamethasone.
# Sixty (60) male Lewis rats were randomly divided into six (6) groups of ten (10) animals each. EIU was induced by footpad injection of lipopolysaccharide (LPS, 1 mg/kg). NaCl (0.9%), SEQ ID NO: 197 at 2 mg/kg and SEQ ID NO: 172 at three concentrations (1.80 mg/kg, 0.18 mg/kg and 0.015 mg/kg) were administered by intravenous injection. Phosphate sodic dexamethasone (20 μg/eye) was administered by sub-conjunctival injection in both eyes. 24 hours after LPS injection, inflammatory response was evaluated by clinical scoring.
# The intensity of clinical ocular inflammation was scored on a scale from 0 to 4 for each eye: […]
# [2] = tested on: established type II collagen arthritis in rats
# human whole blood = experiment: Cytokine release in human whole blood stimulated 3 days with PHA-L or CD3/CD28 antibodies; format: cell-based; conditions: human whole blood, 1, 3, 10 μM
# Experimental: Whole blood from human healthy volunteers was collected using a venipuncture connected to a pre-labeled vacuum tube containing sodium citrate. Tubes are gently mixed by inversion 7-8 times; and are then kept at RT until stimulation. 350 μl of RPMI+P/S were added into 1.2 ml-96-well plate. 10 times concentrated of SEQ ID NO: 172 was prepared in RPMI+P/S (50 μl per well). 50 μl was added into 1.2 ml-96 well plates. 50 μl of whole blood was then added in each well where either medium alone or JNK inhibitor has been previously added. Whole blood was incubated at 37° C., 5% CO2 for 60 min. 50 μl/well of ligands diluted in RPMI+P/S was prepared, corresponding to the final dilution 10 times concentrated. After 60 min of incubation, ligand was added; wells were then mixed by pipetting up and down the blood. Whole blood was incubated for 3 days at 37° C. (wells were mixed by pipetting each well up and down once per day). At the end of incubation, plates were mixed and then centrifuged at 2500 rpm, 4° C. for 15 min in a pre-cooled centrifuge. Cytokine were then measured using standard Elisa kits. Results are expressed as pg/ml of supernatant of the measured cytokine.
# A similar experiment was carried out with slight modifications. In the case of […] stimulation, CD3 antibody was coated at 2 μg/mL in PBS overnight at 4° C. The day of experiment, wells were washed three times with PBS and left in PBS until use at 37° C. CD28 antibody was added 1 h after SEQ ID NO: 172 at final concentration of 2 μg/mL; supernatants were collected after 3 days of stimulation.
# [3] = tested on: mouse model of scopolamine-induced dry eye; experiment: Scopolamine-induced dry eye in mice (TBUT, PRTT, histopathology); format: in vivo; conditions: for TBUT mean nadir: TID topical ocular
# Text: The objective of this study was to assess the effects of two different compounds, the all-D-retro-inverso JNK-inhibitor (poly-)peptide of SEQ ID NO: 197 and the JNK inhibitor (poly-)peptide of SEQ ID NO: 172, at three dose levels in a mouse model of scopolamine-induced dry eye.
# The study consisted of a total of 9 groups of female C57BL/6 mice, comprising 8 groups of 12 mice each and an additional group of 4 mice. Bilateral short-term dry eye was induced by a combination of scopolamine hydrobromide (Sigma-Aldrich Corp., St. Louis, Mo.) injection (subcutaneous (SC), four times daily, 0.5 mg/dose, Days 0-21) and by exposing mice to the drying environment of constant air draft. […] Mice of Group 9 were maintained as un-induced, (no dry eye) untreated controls.
# During the in-life (treatment) period, clinical observations were recorded once daily; slit-lamp examination (SLE) with corneal fluorescein staining, tear break-up time test (TBUT), and phenol red thread test (PRTT) were performed three times per week. Necropsies were performed on Day 22; eyes, eye lids, conjunctivae, and lacrimal glands were collected from both eyes of each animal. Tissues from the right eyes (oculus dexter, OD) were fixed and then evaluated microscopically. Tissues from the left eyes (oculus sinister; OS) were flash-frozen in liquid nitrogen and stored frozen at −80° C. for possible subsequent analyses.
# The TBUT test was conducted three times weekly by measuring the time elapsed in seconds between a complete blink after application of fluorescein to the cornea and the appearance of the first random dry spot in the tear film. […] At least ninety seconds later, corneal epithelial damage was graded using a slit-lamp with a cobalt blue filter after another drop of 0.1% fluorescein was reapplied to the cornea; the cornea then was scored per the Draize ocular scale.
# Tear production was measured three times a week in both eyes using PRTT test strips (Zone-Quick; Menicon, Nagoya, Japan). Prior to the first treatment of the day, a thread was applied to the lateral canthus of the conjunctival fornix of each eye for 30 seconds under slit-lamp biomicroscopy. Tear migration up the tread (i.e., the length of the wetted cotton thread) was measured using a millimeter scale.
# At necropsy on Day 22, both eyes from each animal, including the globes, lacrimal glands, eyelids, and conjunctivae, were excised. The right eye and associated tissues were fixed by overnight submersion in modified Davidson's solution followed by transfer to 10% neutral buffered formalin (NBF). The fixed tissues of the right eye were dehydrated, embedded in paraffin, sectioned at 3 to 5-μm thicknesses, and slide-mounted tissues were stained with hematoxylin and eosin (H & E). Stained slides were evaluated via light microscopy. Detailed and complete histopathologic assessment was conducted on all parts of the eye, with at least two section levels being examined histopathologically for each right eye. Special attention was paid to the cornea, epithelia (including goblet cells) of the conjunctiva and cornea, as well as the lacrimal gland. These tissues were scored for injury based upon a 0-4 scale, with 0 being normal, 1 being minimal, 2 being mild, 3 being moderate, and 4 being severe. For each cornea, scores were based on corneal epithelium thickness, and corneal inflammation. Conjunctivae were scored for erosion and inflammation as well as presence or absence of goblet cells.
# [4] = SEQ ID NO: 172 0.01-5 mg/kg IV QD
structure (smiles),measurement,setting,value
"CC(C)C[C@H](NC(=O)[C@H](CC(N)=O)NC(=O)[C@H](CC(C)C)NC(=O)[C@@H](NC(=O)[C@@H](C)NC(=O)[C@@H]1CCCN1C(=O)[C@H](CCCNC(=N)N)NC(=O)[C@@H](CCCCN)NC(=O)[C@@H]1CCCN1C(=O)[C@H](CCCNC(=N)N)NC(=O)[C@@H](CCCNC(=N)N)NC(=O)[C@H](CCCNC(=N)N)NC(=O)[C@H](CCCNC(=N)N)NC(=O)[C@H](CCC(N)=O)NC(=O)[C@@H](CCCNC(=N)N)NC(=O)[C@H](CCCNC(=N)N)NC(=O)[C@H](CCCCN)NC(=O)[C@H](CCCCN)NC(=O)[C@H](N)CCCNC(=N)N)[C@@H](C)O)C(=O)N[C@H](Cc1ccccc1)C(N)=O [SEQ ID NO: 172, rKKRrQRRrRPkRPaTLNLf] (H-[dR]KKR[dR]QRR[dR]RP[dK]RP[dA]TLNL[dF]-NH2)","EIU clinical score, mean±SEM",[1]; 0.015 mg/kg i.v.,2.3±0.3
same,"EIU clinical score, median",[1]; 0.015 mg/kg i.v.,2
same,"EIU clinical score, mean±SEM",[1]; 0.18 mg/kg i.v.,2.4±0.3
same,"EIU clinical score, median",[1]; 0.18 mg/kg i.v.,2
same,"EIU clinical score, mean±SEM",[1]; 1.80 mg/kg i.v.,2.1±0.3
same,"EIU clinical score, median",[1]; 1.80 mg/kg i.v.,2
same,endotoxin-induced inflammation in the anterior chamber,"[1]; intravenously injected at 0.015, 0.18, 1.80 mg/kg",also reduced the endotoxin-induced inflammation in the anterior chamber
same,daily ankle diameter measurements vs disease controls,"[2]; 5 mg/kg IV QD, p<0.05 days 4-12",significantly (p<0.05 by 2-way RM ANOVA) reduced toward normal
same,adverse effect on organ weights,[2]; IV QD days 1-14,no adverse effect on organ weights
same,relative spleen weights,[2]; [4],not significantly affected
same,relative thymus weights,[2]; [4],not significantly affected
same,CD3/CD28-induced TNF-α release,human whole blood; CD3+/-CD28 antibodies 2 μg/mL,reduce the CD3/CD28-induced TNF-α release in a dose-dependent manner
same,PHA-L-induced IL-2 release,human whole blood; PHA-L 5 μg/mL,reduce the PHA-L-induced IL-2 release in a dose-dependent manner
same,PHA-L-induced TNF-α release,human whole blood; PHA-L 5 μg/mL,reduce the PHA-L-induced TNF-α release in a dose-dependent manner
same,TBUT mean nadir,"[3]; Day 7, high-dose 0.6% (Group 7)",6.7 ± 0.3 s
same,TBUT mean nadir,"[3]; Day 7, low-dose 0.05% (Group 5)",6.6 ± 0.4 s
same,TBUT mean nadir,"[3]; Day 7, mid-dose 0.2% (Group 6)",6.7 ± 0.4 s
same,TBUT mean peak,"[3]; Day 9, high-dose 0.6% (Group 7)",9.9 ± 0.8 s
same,TBUT mean peak,"[3]; Day 9, low-dose 0.05% (Group 5)",8.0 ± 0.4 s
same,TBUT mean peak,"[3]; Day 9, mid-dose 0.2% (Group 6)",10.0 ± 0.7 s
same,"PRTT, aqueous tear production compared with cyclosporine","[3]; Day 21, mid and high-dose (Groups 6 and 7)",therapeutic effects similar to cyclosporine
same,TBUT means compared with vehicle group,"[3]; low, medium and high-dose, Groups 2, 3 and 4",above the vehicle group
same,aqueous tear production (PRTT) compared with vehicle,"[3]; low, mid or high-dose SEQ ID NO: 172",significantly more aqueous tears compared to vehicle-treated animals
same,histological cornea scores compared with cyclosporine group,"[3]; mid and high-dose SEQ ID NO: 172 (Groups 6, 7), high-dose SEQ ID NO: 197 (Group 4)",not significantly different than the cyclosporine group scores
